# According to US12655142B2 (Merck Patent GmbH, priority 2019, dated 2026):
# Structures can show the parent of a compound that is named as a salt. Where two headings read alike, the source gives them in different places.
# Experiments:
# c-Kit(V654A) = target: T1, c-Kit(V654A) (Homo sapiens, UniProt P10721, V654A); assay: c-Kit(V654A) assay (33P-ATP filter binding kinase assay); assay type: biochemical; settings: recombinant human c-Kit aa 544-end V654A, ATP 200 μM
# T1 construct: recombinant human c-Kit, amino acids 544-end containing the V654A mutation; GST (N)
# T1 sequence (P10721 544-976 V654A): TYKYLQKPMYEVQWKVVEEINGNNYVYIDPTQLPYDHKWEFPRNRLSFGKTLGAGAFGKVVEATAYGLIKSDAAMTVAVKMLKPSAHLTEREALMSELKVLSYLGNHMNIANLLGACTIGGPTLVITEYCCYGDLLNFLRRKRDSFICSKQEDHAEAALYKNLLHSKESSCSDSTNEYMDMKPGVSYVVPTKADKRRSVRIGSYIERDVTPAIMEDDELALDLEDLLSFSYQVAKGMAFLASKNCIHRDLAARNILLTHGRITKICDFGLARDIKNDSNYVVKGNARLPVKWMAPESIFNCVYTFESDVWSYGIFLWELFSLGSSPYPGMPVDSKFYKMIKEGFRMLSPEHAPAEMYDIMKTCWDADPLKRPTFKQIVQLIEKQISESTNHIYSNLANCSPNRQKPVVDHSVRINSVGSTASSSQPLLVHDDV
# In short: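 Radiometric filter-binding read-out: substrate 33P incorporation counted by scintillation after P30 filtermat washes in 75 mM phosphoric acid and methanol. Enzyme: N-GST recombinant human c-Kit aa 544-end carrying V654A.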
# [1] = target: T2, GIST430/654 cell line expressing mutated constitutively active cKIT receptor tyrosine kinase (Δ560-576 deletion and V654A point mutation) (Homo sapiens, UniProt P10721, DEL560-576/V654A); assay: Cellular cKIT autophosphorylation (phospho-Y307-cKIT, Luminex bead assay) in GIST430/654 cells; assay type: cell-based; settings: compounds 45 min, read-out: GIST 430/654 IC50
# T2 construct: endogenous in cells; host or cells: GIST430/654 cells
# T2 sequence (P10721 with tags, fused parts or gaps DEL560-576/V654A): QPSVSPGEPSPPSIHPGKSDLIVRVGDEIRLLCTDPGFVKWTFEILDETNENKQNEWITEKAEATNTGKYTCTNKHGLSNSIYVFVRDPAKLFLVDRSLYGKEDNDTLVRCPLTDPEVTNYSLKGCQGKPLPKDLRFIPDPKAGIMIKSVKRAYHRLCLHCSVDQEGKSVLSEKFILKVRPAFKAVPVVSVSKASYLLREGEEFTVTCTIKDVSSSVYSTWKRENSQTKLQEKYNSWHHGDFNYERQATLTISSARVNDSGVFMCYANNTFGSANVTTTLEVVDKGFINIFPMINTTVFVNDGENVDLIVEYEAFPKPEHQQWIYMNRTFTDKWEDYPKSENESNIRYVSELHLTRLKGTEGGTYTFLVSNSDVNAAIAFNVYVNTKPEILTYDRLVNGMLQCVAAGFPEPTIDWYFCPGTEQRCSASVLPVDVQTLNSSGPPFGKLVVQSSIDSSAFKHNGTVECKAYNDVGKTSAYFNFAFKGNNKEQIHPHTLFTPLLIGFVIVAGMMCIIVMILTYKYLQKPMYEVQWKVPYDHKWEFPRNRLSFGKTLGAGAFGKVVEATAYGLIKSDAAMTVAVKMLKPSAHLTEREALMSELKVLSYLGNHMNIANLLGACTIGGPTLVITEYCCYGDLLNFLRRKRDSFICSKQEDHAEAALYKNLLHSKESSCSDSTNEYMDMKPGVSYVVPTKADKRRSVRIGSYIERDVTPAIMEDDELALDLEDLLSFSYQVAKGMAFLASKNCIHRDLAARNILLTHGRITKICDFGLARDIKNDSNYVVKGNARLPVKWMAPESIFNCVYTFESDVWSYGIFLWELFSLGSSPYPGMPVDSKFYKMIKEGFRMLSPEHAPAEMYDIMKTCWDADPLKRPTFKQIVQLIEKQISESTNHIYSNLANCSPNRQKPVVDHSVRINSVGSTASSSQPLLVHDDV
# In short: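 Phospho-Y307 cKIT in lysates was measured on a Luminex bead assay, with total-cKIT capture overnight at 4 °C and phosphospecific plus PE secondary detection. Cells had 45 min exposure to a compound dilution series the day after plating: GIST430 (Δ560-576) or GIST430/654 (Δ560-576/V654A, grown with 100 nM imatinib). IC50 values are relative to 0.3% DMSO-treated cells.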
# [2] = target: T3, GIST430 cell line expressing constitutive active cKIT receptor tyrosine kinase (Δ560-576 deletion) (Homo sapiens, UniProt P10721, DEL560-576); assay: Cellular cKIT autophosphorylation (phospho-Y307-cKIT, Luminex bead assay) in GIST430 cells; assay type: cell-based
# T3 construct: endogenous in cells; host or cells: GIST430 cells
# T3 sequence (P10721 with tags, fused parts or gaps DEL560-576): as the sequence (P10721 with tags, fused parts or gaps DEL560-576/V654A) above, with A612V counted along it
# Experimental: Assay Principle for Cellular Testing of cKIT Mutant Inhibitors
# The GIST430 cell line expressing constitutive active cKIT receptor tyrosine kinase (Δ560-576 deletion) and the Imatinib resistant GIST430/654 cell line expressing mutated constitutively active cKIT receptor tyrosine kinase (Δ560-576 deletion and V654A point mutation) were employed for assessing cellular potency of compounds. Cellular activity of mutant cKIT was determined by the degree of cKIT autophosphorylation at tyrosine 307 using a Luminex-based bead assay. GIST430 cells were plated with 22,000 cells per well of a 96-well plate in 100 μl medium (85% IMDM/15% FCS) and GIST430/654 cells were plated with 25,000 cells per well of a 96-well plate in 100 μl medium (85% IMDM/15% FCS supplemented with 100 nM Imatinib). At the following day compounds were added in a serial dilution for 45 min. Then, cells were lysed with 90 μl lysis buffer (20 mM Hepes pH 7.5, 200 mM NaCl, 1.5 mM MgCl2×6H2O, 0.4 mM EDTA, 1% Triton-X-100, 1% Phosphatase-Inhibitor II, 20 mM β-Glycerolphosphat, 0.1% Protease-Inhibitor Cocktail III, 0.01% Benzonase) and lysates were cleared by centrifugation through a 96-well filter plate (0.65 μm). Samples were incubated with Luminex-beads which were coupled with an anti-total cKIT antibody overnight at 4° C. under gentle agitation. For detection of phospho-Y307-cKIT a phosphospecific antibody and a species-specific PE-labeled secondary antibody were added. The amount of phospho-Y307-cKIT was determined in a Luminex 200 instrument measuring 100 events per well within 60 seconds.
# Counts from samples treated with compounds were calculated as percent of control from solvent treated (0.3% DMSO) samples. Dose-response curves were fitted and IC50 values were determined using Genedata Screener software.
# [3] = Determination of Efflux-Ratio (ER) in Caco-2 cells; settings: human, Caco-2, pH 7.4
# [4] = cKIT autophosphorylation, GIST430 cells, compounds 45 min, read-out: GIST 430 IC50
Structure (SMILES),IC50 (c-Kit(V654A)) [nM],IC50 [1] [nM],"IC50 [2, 4] [M]","efflux ratio at 2 h, 1 μM [3]","IC50 ([2]; cell line not specified (GIST), read-out: IC50 [M] GIST) [M]"
"COc1ccn2c(-c3cc(NCc4ccc(-c5cnn(C)c5)cc4)ncn3)cnc2c1 [A1, 6-{7-methoxyimidazo[1,2-a]pyridin-3-yl}-N-{[4-(1-methyl-1H-pyrazol-4-yl)phenyl]methyl}pyrimidin-4-amine]",8.6,55,3.2e-09,< 15,–
"COCCOc1ccn2c(-c3cc(NCc4ccc(-c5ccccc5)cc4)ncn3)cnc2c1 [A2, N-({[1,1′-biphenyl]-4-yl}methyl)-6-[7-(2-methoxyethoxy)imidazo[1,2-a]pyridin-3-yl]pyrimidin-4-amine]",4.6,160,7.7e-09,< 15,–
"COCCOc1ccn2c(-c3cc(NCc4ccc(-c5cnn(C)c5)cc4)ncn3)cnc2c1 [A4, 6-[7-(2-methoxyethoxy)imidazo[1,2-a]pyridin-3-yl]-N-{[4-(1-methyl-1H-pyrazol-4-yl)phenyl]methyl}pyrimidin-4-amine]",7.3,48,4.8e-09,< 15,–
"COCCOc1ccn2c(-c3cc(NCc4ccc(-c5cccnc5)cc4)ncn3)cnc2c1 [A5, 6-[7-(2-methoxyethoxy)imidazo[1,2-a]23yridine-3-yl]-N-{[4-(23yridine-3-yl)phenyl]methyl}pyrimidin-4-amine]",8.2,170,5.3e-09,–,–
"COc1ccn2c(-c3cc(NCc4ccc(-c5cccnc5)cc4)ncn3)cnc2c1 [A6, 6-{7-methoxyimidazo[1,2-a]23yridine-3-yl}-N-{[4-(23yridine-3-yl)phenyl]methyl}pyrimidin-4-amine]",6.4,350,2e-08,–,–
"COCCOc1ccn2c(-c3cc(NCc4ccc(-c5ccn(C)n5)cc4)ncn3)cnc2c1 [A7, 6-[7-(2-methoxyethoxy)imidazo[1,2-a]pyridin-3-yl]-N-{[4-(1-methyl-1H-pyrazol-3-yl)phenyl]methyl}pyrimidin-4-amine]",4.7,300,6.1e-09,–,–
"c1ccn2c(-c3cc(NCc4ccc(-n5cccn5)cc4)ncn3)cnc2c1 [A9, (6-Imidazo[1,2-a]23yridine-3-yl-pyrimidin-4-yl)-(4-pyrazol-1-yl-benzyl)-amine]",2.2,190,2.4e-09,–,–
"COCCOc1ccn2c(-c3cc(NCc4ccc(-c5cnn(C)c5)nc4)ncn3)cnc2c1 [A11, 6-[7-(2-methoxyethoxy)imidazo[1,2-a]pyridin-3-yl]-N-{[6-(1-methyl-1H-pyrazol-4-yl)pyridin-3-yl]methyl}pyrimidin-4-amine]",15,170,7e-09,–,–
"COCCOc1ccn2c(-c3cc(NCc4ccc(-n5ccnn5)cc4)ncn3)cnc2c1 [A16, 6-[7-(2-methoxyethoxy)imidazo[1,2-a]pyridin-3-yl]-N-{[4-(1H-1,2,3-triazol-1-yl)phenyl]methyl}pyrimidin-4-amine]",6.3,130,4.2e-09,< 15,–
"COc1ccn2c(-c3cc(NCc4ccc(-n5ccnn5)cc4)ncn3)cnc2c1 [A18, 6-{7-methoxyimidazo[1,2-a]pyridin-3-yl}-N-{[4-(1H-1,2,3-triazol-1-yl)phenyl]methyl}pyrimidin-4-amine]",13,200,7.2e-09,< 15,–
"COc1ccn2c(-c3cc(NCc4ccc(-c5coc(C)n5)cc4)ncn3)cnc2c1 [A42, 6-{7-methoxyimidazo[1,2-a]pyridin-3-yl}-N-{[4-(2-methyl-1,3-oxazol-4-yl)phenyl]methyl}pyrimidin-4-amine]",1.3,59,1.8e-09,< 15,–
"Cn1cc(-c2ccc(CNc3cc(-c4cnc5cc(OCCN6CCOCC6)ccn45)ncn3)cc2)cn1 [A56, [4-(1-methyl-1H-pyrazol-4-yl)-benzyl]-{6-[7-(2-morpholin-4-yl-ethoxy)-imidazo[1,2-a]pyridin-3-yl]-pyrimidin-4-yl}-amine]",7.3,50,3.9e-09,< 15,–
"CN1CCC(COc2ccn3c(-c4cc(NCc5ccc(-c6cnn(C)c6)cc5)ncn4)cnc3c2)CC1 [A62, {6-[7-(1-methyl-piperidin-4-ylmethoxy)-imidazo[1,2-a]pyridin-3-yl]-pyrimidin-4-yl}-[4-(1-methyl-1H-pyrazol-4-yl)-benzyl]-amine]",4.1,32,3.7e-09,< 15,–
"Cn1cc(-c2ccc(CNc3cc(-c4cnc5cc(OCCCN6CCCC6)ccn45)ncn3)cc2)cn1 [A75 hydrochloride, [4-(1-methyl-1H-pyrazol-4-yl)-benzyl]-{6-[7-(3-pyrrolidin-1-yl-propoxy)-imidazo[1,2-a]pyridin-3-yl]-pyrimidin-4-yl}-amine hydrochloride]",5.8,–,–,–,2.1e-09
"Cn1ncc(-c2ccc(CNc3cc(-c4cnc5cc(OCC6CCN(C7COC7)CC6)ccn45)ncn3)cc2)n1 [A76, [4-(2-methyl-2H-[1,2,3]triazol-4-yl)-benzyl]-{6-[7-(1-oxetan-3-yl-piperidin-4-ylmethoxy)-imidazo[1,2-a]pyridin-3-yl]-pyrimidin-4-yl}-amine]",7.8,52,2.1e-09,< 15,–
"Cn1cc(-c2ccc(CNc3cc(-c4cnc5cc(OCC6CCN(C7COC7)CC6)ccn45)ncn3)cc2)cn1 [A78, [4-(1-methyl-1H-pyrazol-4-yl)-benzyl]-{6-[7-(1-oxetan-3-yl-piperidin-4-ylmethoxy)-imidazo[1,2-a]pyridin-3-yl]-pyrimidin-4-yl}-amine]",9.1,79,3.6e-09,< 15,–
"COc1ccn2c(-c3ncnc(NCc4ccc(-c5cnn(C)c5)cc4)c3F)cnc2c1 [A97, 5-fluoro-6-{7-methoxyimidazo[1,2-a]pyridin-3-yl}-N-{[4-(1-methyl-1H-pyrazol-4-yl)phenyl]methyl}pyrimidin-4-amine]",6.6,230,8.8e-09,–,–
"Cc1cc(N2CC[C@H](F)C2)ncc1CNc1cc(-c2cnc3ccccn23)ncn1 [A155, [6-((S)-3-fluoro-pyrrolidin-1-yl)-4-methyl-pyridin-3-ylmethyl]-(6-imidazo[1,2-a]pyridin-3-yl-pyrimidin-4-yl)-amine]",92,30000,5.1e-08,–,–
"CC(Nc1cc(-c2cnc3cc(OCCCN4CCCC4)ccn23)ncn1)c1ccc(-c2cnn(C)c2)cc1 (stereo not drawn) [A250, {1-[4-(1-methyl-1H-pyrazol-4-yl)-phenyl]-ethyl}-{6-[7-(3-pyrrolidin-1-yl-propoxy)-imidazo[1,2-a]pyridin-3-yl]-pyrimidin-4-yl}-amine]",110,410,–,> 50,–
"OCCOc1ccn2c(-c3cc(NCc4ccc(-c5cocn5)cc4)ncn3)cnc2c1 [A251, 2-{3-[6-(4-oxazol-4-yl-benzylamino)-pyrimidin-4-yl]-imidazo[1,2-a]pyridin-7-yloxy}-ethanol]",2,44,–,< 15,–
"Cn1cc(-c2ccc(CNc3cc(-c4cnc5cc(OCCn6cccn6)ccn45)ncn3)cc2)cn1 [A255, N-{[4-(1-methyl-1H-pyrazol-4-yl)phenyl]methyl}-6-{7-[2-(1H-pyrazol-1-yl)ethoxy]imidazo[1,2-a]pyridin-3-yl}pyrimidin-4-amine]",15,100,–,< 15,–
"Cn1cc(-c2ccc(CNc3cc(-c4cnc5cc(OCCCn6cccn6)ccn45)ncn3)cc2)cn1 [A257, N-{[4-(1-methyl-1H-pyrazol-4-yl)phenyl]methyl}-6-{7-[3-(1H-pyrazol-1-yl)propoxy]imidazo[1,2-a]pyridin-3-yl}pyrimidin-4-amine]",16,130,–,< 15,–
